Reference: paper PMC4741387 (Biochemistry, 2015)
Residue numbers refer to the chain shown, from its start.

What was measured:
Assay in all cases: fluorescence titration of rhodamine-labelled protein
[1] = target: T1, (K229C,E302C)PBP labeled with 6-IATR (PstS phosphate binding protein) (Escherichia coli, UniProt P0AG82, E327C/G165A/K254C)
T1 sequence (P0AG82 26-346 G165A/K254C/E327C): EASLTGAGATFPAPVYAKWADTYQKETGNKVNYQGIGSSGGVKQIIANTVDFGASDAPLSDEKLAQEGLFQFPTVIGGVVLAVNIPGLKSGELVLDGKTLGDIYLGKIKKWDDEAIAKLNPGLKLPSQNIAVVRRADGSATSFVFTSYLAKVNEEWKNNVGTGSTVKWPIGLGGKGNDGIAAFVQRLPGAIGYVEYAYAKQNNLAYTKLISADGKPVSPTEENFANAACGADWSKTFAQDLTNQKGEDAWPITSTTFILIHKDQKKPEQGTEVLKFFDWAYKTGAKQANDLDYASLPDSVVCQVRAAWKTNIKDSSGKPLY

[2] = target: T2, rho-PBP: (A17C,A197C)PBP labeled with 6-IATR (PstS phosphate binding protein) (Escherichia coli, UniProt P0AG82, A222C/A42C/R160A)
T2 sequence (P0AG82 26-346 A42C/R160A/A222C): T1 sequence (P0AG82 26-346 G165A/K254C/E327C) with A17C, R135A, A140G, A197C, C229K, C302E

[3] = target: T3, rho-PBP: (A17C,A197C)PBP labeled with 6-IATR (PstS phosphate binding protein) (Escherichia coli, UniProt P0AG82, A222C/A42C/G165A)
T3 sequence (P0AG82 26-346 A42C/G165A/A222C): T1 sequence (P0AG82 26-346 G165A/K254C/E327C) with A17C, A197C, C229K, C302E

[4] = target: T4, rho-PBP: (A17C,A197C)PBP labeled with 6-IATR (PstS phosphate binding protein) (Escherichia coli, UniProt P0AG82, A222C/A42C/G165A/S189K/S64D)
T4 sequence (P0AG82 26-346 A42C/S64D/G165A/S189K/A222C): T1 sequence (P0AG82 26-346 G165A/K254C/E327C) with A17C, S39D, S164K, A197C, C229K, C302E

[5] = target: T5, rho-PBP: (A17C,A197C)PBP labeled with 6-IATR (PstS phosphate binding protein) (Escherichia coli, UniProt P0AG82, A222C/A42C/T35A)
T5 sequence (P0AG82 26-346 T35A/A42C/A222C): T1 sequence (P0AG82 26-346 G165A/K254C/E327C) with T10A, A17C, A140G, A197C, C229K, C302E

[6] = target: T6, rho-PBP: (A17C,A197C)PBP labeled with 6-IATR (PstS phosphate binding protein) (Escherichia coli, UniProt P0AG82, A222C/A42C/S63A)
T6 sequence (P0AG82 26-346 A42C/S63A/A222C): T1 sequence (P0AG82 26-346 G165A/K254C/E327C) with A17C, S38A, A140G, A197C, C229K, C302E

In the case of `O=P(O)(O)O` [inorganic phosphate], the Kd [1] is reported as 220 ± 11 µM, the Kd [2] is reported as < 1 µM and the Kd [3] is reported as 70 ± 17 µM. For the same molecule, the Kd [4] was 40 ± 4 µM, the Kd [5] was 32 ± 2 µM and the Kd [6] was 68 ± 9 µM.
